According to ChEMBL document CHEMBL3885881, “DrugMatrix”:

Species on record: Rattus norvegicus
Assay: DrugMatrix - Regimen: Daily Repeat
Type: toxicity, organism-based, Sprague-Dawley
Design: regimen Daily Repeat, gender Male, age 6-8 weeks
Settings: in vivo, po, 1200 mg/kg, route oral GAVAGE, dose level High, vehicle .5 % CMC; for ABSOLUTE BASOPHIL / ABSOLUTE EOSINOPHIL / ABSOLUTE LYMPHOCYTE / ABSOLUTE MONOCYTE / ABSOLUTE SEGMENTED NEUTROPHIL / BASOPHIL / EOSINOPHIL / ERYTHROCYTE COUNT / HEMATOCRIT / HEMOGLOBIN / LEUKOCYTE COUNT / LYMPHOCYTE / MEAN CORPUSCULAR HEMOGLOBIN / MEAN CORPUSCULAR HEMOGLOBIN CONCENTRATION / MEAN CORPUSCULAR VOLUME / MONOCYTE / NEUTROPHIL / NUCLEATED RED BLOOD CELLS / PLATELET COUNT: tissue Blood; for ALANINE AMINOTRANSFERASE / ALBUMIN / ALKALINE PHOSPHATASE / ASPARTATE AMINOTRANSFERASE / BLOOD UREA NITROGEN / CARBON DIOXIDE / CHLORIDE / CHOLESTEROL / CREATINE PHOSPHOKINASE / CREATININE / GLUCOSE / LACTATE DEHYDROGENASE / LIPASE / PHOSPHORUS / POTASSIUM / SODIUM / TOTAL BILIRUBIN / TOTAL PROTEIN / URIC ACID: tissue Plasma

O=C(C1CCCCC1)N1CC(=O)N2CCc3ccccc3C2C1 (stereo unspecified) [PRAZIQUANTEL]
ABSOLUTE BASOPHIL (72 h, time 3 day): 0 CELLS/uL
ABSOLUTE EOSINOPHIL (72 h, time 3 day): 48 CELLS/uL
ABSOLUTE LYMPHOCYTE (72 h, time 3 day): 14636 CELLS/uL
ABSOLUTE MONOCYTE (72 h, time 3 day): 440 CELLS/uL
ABSOLUTE SEGMENTED NEUTROPHIL (72 h, time 3 day): 1476 CELLS/uL
BASOPHIL (72 h, time 3 day): 0%
EOSINOPHIL (72 h, time 3 day): 0.33%
ERYTHROCYTE COUNT (72 h, time 3 day): 6.1 x10E6/uL
HEMATOCRIT (72 h, time 3 day): 37.8%
HEMOGLOBIN (72 h, time 3 day): 14.07 G/DL
LEUKOCYTE COUNT (72 h, time 3 day): 16.6 x10E3/uL
LYMPHOCYTE (72 h, time 3 day): 88%
MEAN CORPUSCULAR HEMOGLOBIN (72 h, time 3 day): 23.1 pg
MEAN CORPUSCULAR HEMOGLOBIN CONCENTRATION (72 h, time 3 day): 37.23 G/DL
MEAN CORPUSCULAR VOLUME (72 h, time 3 day): 62.03 fL
MONOCYTE (72 h, time 3 day): 2.67%
NEUTROPHIL (72 h, time 3 day): 9%
NUCLEATED RED BLOOD CELLS (72 h, time 3 day): 0 /100WBC
PLATELET COUNT (72 h, time 3 day): 1207 x10E3/uL
ALANINE AMINOTRANSFERASE (72 h, time 3 day): 78.33 u/L
ALBUMIN (72 h, time 3 day): 4.17 G/DL
ALKALINE PHOSPHATASE (72 h, time 3 day): 420.67 u/L
ASPARTATE AMINOTRANSFERASE (72 h, time 3 day): 106 u/L
BLOOD UREA NITROGEN (72 h, time 3 day): 16.67 mg/dL
CARBON DIOXIDE (72 h, time 3 day): 21.67 mmol/L
CHLORIDE (72 h, time 3 day): 106 MEQ/L
CHOLESTEROL (72 h, time 3 day): 113 mg/dL
CREATINE PHOSPHOKINASE (72 h, time 3 day): 468 u/L
CREATININE (72 h, time 3 day): 0.27 mg/dL
GLUCOSE (72 h, time 3 day): 155.33 mg/dL
LACTATE DEHYDROGENASE (72 h, time 3 day): 155.67 u/L
LIPASE (72 h, time 3 day): 12.33 u/L
PHOSPHORUS (72 h, time 3 day): 12.53 mg/dL
POTASSIUM (72 h, time 3 day): 6.11 MEQ/L
SODIUM (72 h, time 3 day): 146.03 MEQ/L
TOTAL BILIRUBIN (72 h, time 3 day): 0.17 mg/dL
TOTAL PROTEIN (72 h, time 3 day): 5.9 G/DL
URIC ACID (72 h, time 3 day): 1.8 mg/dL
ABSOLUTE BASOPHIL (120 h, time 5 day): 0 CELLS/uL
ABSOLUTE EOSINOPHIL (120 h, time 5 day): 0 CELLS/uL
ABSOLUTE LYMPHOCYTE (120 h, time 5 day): 15049.33 CELLS/uL
ABSOLUTE MONOCYTE (120 h, time 5 day): 624 CELLS/uL
ABSOLUTE SEGMENTED NEUTROPHIL (120 h, time 5 day): 1126.67 CELLS/uL
BASOPHIL (120 h, time 5 day): 0%
EOSINOPHIL (120 h, time 5 day): 0%
ERYTHROCYTE COUNT (120 h, time 5 day): 6.07 x10E6/uL
HEMATOCRIT (120 h, time 5 day): 37.33%
HEMOGLOBIN (120 h, time 5 day): 14 G/DL
LEUKOCYTE COUNT (120 h, time 5 day): 16.8 x10E3/uL
LYMPHOCYTE (120 h, time 5 day): 89.67%
MEAN CORPUSCULAR HEMOGLOBIN (120 h, time 5 day): 23.07 pg
MEAN CORPUSCULAR HEMOGLOBIN CONCENTRATION (120 h, time 5 day): 37.53 G/DL
MEAN CORPUSCULAR VOLUME (120 h, time 5 day): 61.5 fL
MONOCYTE (120 h, time 5 day): 3.67%
NEUTROPHIL (120 h, time 5 day): 6.67%
NUCLEATED RED BLOOD CELLS (120 h, time 5 day): 0 /100WBC
PLATELET COUNT (120 h, time 5 day): 1413.33 x10E3/uL
ALANINE AMINOTRANSFERASE (120 h, time 5 day): 57.67 u/L
ALBUMIN (120 h, time 5 day): 4.2 G/DL
ALKALINE PHOSPHATASE (120 h, time 5 day): 351.33 u/L
ASPARTATE AMINOTRANSFERASE (120 h, time 5 day): 77 u/L
BLOOD UREA NITROGEN (120 h, time 5 day): 17.67 mg/dL
CARBON DIOXIDE (120 h, time 5 day): 27.33 mmol/L
CHLORIDE (120 h, time 5 day): 103.67 MEQ/L
CHOLESTEROL (120 h, time 5 day): 102.33 mg/dL
CREATINE PHOSPHOKINASE (120 h, time 5 day): 250.67 u/L
CREATININE (120 h, time 5 day): 0.22 mg/dL
GLUCOSE (120 h, time 5 day): 153 mg/dL
LACTATE DEHYDROGENASE (120 h, time 5 day): 208.67 u/L
LIPASE (120 h, time 5 day): 12.33 u/L
PHOSPHORUS (120 h, time 5 day): 13.13 mg/dL
POTASSIUM (120 h, time 5 day): 7.47 MEQ/L
SODIUM (120 h, time 5 day): 145.47 MEQ/L
TOTAL BILIRUBIN (120 h, time 5 day): 0.17 mg/dL
TOTAL PROTEIN (120 h, time 5 day): 6.33 G/DL
URIC ACID (120 h, time 5 day): 2.3 mg/dL
